Laboratory results: patent US5475016A, “Sulphonylbenzyl-substituted imidazolypropenoic acid derivatives” (Bayer Aktiengesellschaft, priority 1992, dated 1995)

The compounds below were run on isolated aorta rings of rabbits, contraction induced by angiotensin II (AII) (assay: Inhibition of the vascular contraction in isolated aorta rings of rabbits in vitro, contraction induced by angiotensin II). Details: Oryctolagus cuniculus, effect at the 3rd = submaximal agonist concentration, read-out: IC50 against contractions induced by: AII.
Type: cell-based, rabbit
Method: Investigation of the Inhibition of the Contraction Induced with Agonists
Rabbits of both sexes are anaesthetised by a blow to the neck and bled out, or alternatively anaesthetised with Nembutal (about 60-80 mg/kg i.v.) and sacrificed by opening the thorax. The thorax aorta is taken out, freed from adhering connective tissue, divided into 1.5 mm-wide ring segments and these are individually transferred under an initial loading of about 3.5 g to 10-ml organ baths containing 95% O2 /5% CO2 -aerated Krebs-Henseleit nutrient solution, thermostated at 37° C., of the following composition: 119 mmol/l NaCl; 2.5 mmol/l CaCl2 ×2H2 O; 1.2 mmol/l KH2 PO4; 10 mmol/l glucose; 4.8 mmol/l KCl; 1.4 mmol/l MgSO4 ×7 H2 O and 25 mmol/l NaHCO3.
The contractions are detected isometrically by Statham UC2 cells by means of a bridge amplifier (ifd Mulheim or DSM Aalen) and digitised and evaluated by means of an A/D converter (System 570, Keithley, Munich). The implementation of agonist dose-response curves (DRC) is carried out hourly. With each DRC, 3 or 4 individual concentrations are applied to the baths at 4-min intervals. After the end of the DRC and subsequent washing-out cycles (16 times, in each case about 5 sec/min with the abovementioned nutrient solution), a 28-minute rest or incubation phase follows, in the course of which the contractions as a rule reach the starting value again.
The height of, in the normal case, the 3rd DRC is used as a reference quantity for the assessment of the test substance to be investigated in further runs, which test substance in the following DRCs is applied at the start of the incubation time to the baths, in each case in an increasing dose. Each aorta ring is in this case stimulated for the whole day, always with the same agonist.
Agonists and their Standard Concentrations (Administration Volume Per Individual Dose=100 μl):
For the calculation of the IC50 (concentration at which the substance to be investigated causes a 50% inhibition), the effect in each case at the 3rd=submaximal agonist concentration is used as a basis.
CCCCc1nc(Cl)c(C=C(CC2CCCCC2)C(=O)O)n1Cc1ccc(S(=O)(=O)N2CCC[C@H]2C(=O)O)cc1Cl [Example 24] showed an IC50 of 1 nM. Compound CCCCc1ncc(C=C(Cc2ccc(F)cc2)C(=O)OC)n1Cc1ccc(S(=O)(=O)N2CCC[C@H]2C(=O)O)cc1Cl [Example 57] has an IC50 of 6 nM. With CCCCc1ncc(C=C(CCC)C(=O)O)n1Cc1ccc(S(=O)(=O)N2CCC[C@H]2C(=O)O)cc1Cl [Example 39] the IC50 was 4 nM. Work on CCCCc1ncc(C=C(CC(C)C)C(=O)O)n1Cc1ccc(S(=O)(=O)N2CCC[C@H]2C(=O)O)cc1Cl [Example 43] yielded an IC50 of 3 nM. CCCCc1nc(Cl)c(C=C(CC2CCCC2)C(=O)OC)n1Cc1ccc(S(=O)(=O)N2CCCCC2C(=O)O)cc1Cl (racemic) [Example 2, rac-4-{[2-Butyl-4-chloro-5-(3-cyclopentyl-2-methoxycarbonylprop-1-enyl)imidazolyl]methyl}-3-chlorobenzenesulphonyl-N-(2-carboxy)piperidinide] gave an IC50 of 11 nM. With CCCCc1ncc(C=C(Cc2cccs2)C(=O)OC)n1Cc1ccc(S(=O)(=O)N2CCC[C@H]2C(=O)O)cc1Cl [Example 53] the IC50 was 6 nM. CCCCc1ncc(C=C(Cc2cccs2)C(=O)O)n1Cc1ccc(S(=O)(=O)N2CCC[C@H]2C(=O)O)cc1Cl [Example 55] showed an IC50 of 3 nM. Work on CCCCc1nc(Cl)c(C=C(CC2CCCC2)C(=O)O)n1Cc1ccc(S(=O)(=O)N2CCC[C@H]2C(=O)O)cc1 [Example 19] yielded an IC50 of 40 nM. Work on CCCCc1ncc(C=C(CC2CCCC2)C(=O)O)n1Cc1ccc(S(=O)(=O)N2CCC[C@H]2C(=O)O)cc1Cl [Example 47] yielded an IC50 of 4 nM.

These compounds were tested on Angiotensin II-infused rat (assay: Blood pressure measurements on the angiotensin II-infused rat). Details: 0.1 mg/kg p.o.; angiotensin II infusion 0.3 μg/kg/min; average values.
Type: in vivo, male Wistar rats
Method: Blood Pressure Measurements on the Angiotensin II-Infused Rat
Male Wistar rats (Moellegaard, Copenhagen, Denmark) having a body weight of 300-350 g are anaesthetised with thiopental (100 mg/kg i.p.). After tracheotomy, a catheter is inserted in the femoral artery for blood pressure measurement and a catheter for angiotensin II infusion and a catheter for substance administration are inserted in the femoral veins. After administration of the ganglionic blocker pentolinium (5 mg/kg i.v.), the angiotensin II infusion (0.3 μg/kg/min) is started. As soon as the blood pressure values have reached a stable plateau, the test substances are administered either intravenously or orally as a suspension or solution in 0.5% Tylose.
CCCCc1ncc(C=C(CC(C)C)C(=O)O)n1Cc1ccc(S(=O)(=O)N2CCC[C@H]2C(=O)O)cc1Cl [Example 43] was tested, and the “Blood pressure measurement (blood pressure change)” value was -10 mm Hg. CCCCc1nc(Cl)c(C=C(CC2CCCCC2)C(=O)O)n1Cc1ccc(S(=O)(=O)N2CCC[C@H]2C(=O)O)cc1 [Example 23] was tested, and the “Blood pressure measurement (blood pressure change)” value was -17 mm Hg. CCCCc1ncc(C=C(CC(C)C)C(=O)OCC)n1Cc1ccc(S(=O)(=O)N2CCC[C@H]2C(=O)O)cc1Cl [Example 41] was tested, and the “Blood pressure measurement (blood pressure change)” value was -11 mm Hg.

The compounds below were run on smooth muscle cells (assay: Inhibition of the proliferation of smooth muscle cells (3H-thymidine incorporation)). Details: 10^-6 M.
Type: cell-based, rats or pigs
Method: Investigation of Inhibition of the Proliferation of Smooth Muscle Cells by the Compounds According to the Invention
To determine the antiproliferative action of the compounds, smooth muscle cells are used which have been obtained from the aortas of rats or pigs by the media explant technique [R. Ross, J. Cell. Biol. 50, 172, 1971]. The cells are inoculated into suitable culture dishes, as a rule 24-hole plates, and cultured at 37° C. in 5% CO2 for 2-3 days in Medium 199 containing 7.5% FCS and 7.5% NCS, 2 mM L-glutamine and 15 mM HEPES, pH 7.4. After this, the cells are synchronised by withdrawal of serum for 2-3 days and then stimulated into growth with AII, serum or other factors. At the same time, test compounds are added. After 16-20 hours, 1 μCi of ^3 H-thymidine is added and the incorporation of this substance into the TCA-precipitable DNA of the cells is determined after a further 4 hours.
In the case of CCCCc1nc(Cl)c(C=C(Cc2cccs2)C(=O)OC)n1Cc1ccc(S(=O)(=O)N2CCCCC2)cc1 [Example 27], the inhibition at 1 µM is reported as 30%. CCCCc1nc(Cl)c(C=CC(=O)O)n1Cc1ccc(S(=O)(=O)N2CCCC2)cc1 [Example 6] showed an inhibition at 1 µM of 70%.

These compounds were tested against T1, Angiotensin II receptor (Bos taurus, UniProt P25104) (assay: Interaction with the angiotensin II receptor on membrane fractions of the adrenal gland cortex (cattle), 3H-angiotensin II binding). Details: bovine adrenal gland cortex membranes, 3H-angiotensin II 3-5 nM, 60 min at room temperature.
T1 construct: from tissue; host or cells: bovine adrenal gland cortex, partially purified membrane fractions
T1 sequence (P25104 1-359): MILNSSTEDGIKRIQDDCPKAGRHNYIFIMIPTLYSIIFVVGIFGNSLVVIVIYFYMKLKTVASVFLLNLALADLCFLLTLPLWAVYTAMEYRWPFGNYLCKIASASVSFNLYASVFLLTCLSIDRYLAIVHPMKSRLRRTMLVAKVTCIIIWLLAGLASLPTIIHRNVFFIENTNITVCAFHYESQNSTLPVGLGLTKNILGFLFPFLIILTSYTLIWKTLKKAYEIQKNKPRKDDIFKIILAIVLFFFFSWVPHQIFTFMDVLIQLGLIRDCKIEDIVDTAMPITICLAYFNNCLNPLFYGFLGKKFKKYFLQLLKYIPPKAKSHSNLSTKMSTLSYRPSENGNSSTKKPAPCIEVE
Source text: Interaction of the Compounds According to the Invention with the Angiotensin II Receptor on Membrane Fractions of the Adrenal Gland Cortex (Cattle)
Adrenal gland cortices of cattle (AGC), which have been freshly removed and carefully freed from gland medulla, are comminuted in sucrose solution (0.32M) with the aid of an Ultra-Turrax (Janke & Kunkel, Staufen i.B.) to give a coarse membrane homogenate and are partially purified in two centrifugation steps to give membrane fractions. The receptor binding investigations are carried out on partially purified membrane fractions of bovine AGC using radioactive angiotensin II in an assay volume of 0.25 ml, which in detail contains the partially purified membranes (50-80 μg), ^3 H-angiotensin II (3-5 nM), test buffer solution (50 mM tris, pH 7.2, 5 mM MgCl2, 0.25% BSA) and the substances to be investigated. After an incubation time of 60 min at room temperature, the unbound radioactivity of the samples is separated by means of moistened glass fibre filters (Whatman GF/C) and the bound radioactivity is measured […] in a scintillation cocktail after washing the protein with ice-cold buffer solution (50 mM tris/HCl, pH 7.4, 5% PEG 6000). The analysis of the raw data was carried out using computer programs to give Ki or IC50 values (Ki : IC50 values corrected for the radioactivity used; IC50 values: concentration at which the substance to be investigated causes a 50% inhibition of the specific binding of the radioligand).
CCCCc1nc(Cl)c(C=C(CC2CCCCC2)C(=O)O)n1Cc1ccc(S(=O)(=O)N2CCCCC2)cc1 [Example 10] showed a Ki of 40 nM. CCCCc1nc(Cl)c(C=C(CC2CCCC2)C(=O)O)n1Cc1ccc(S(=O)(=O)N2CCCCC2C(=O)O)cc1Cl (stereo not drawn) [Example 20] gave a Ki of 40 nM. CCCCc1nc(Cl)c(C=C(Cc2cccs2)C(=O)OC)n1Cc1ccc(S(=O)(=O)N2CCCCC2C(=O)OC(C)(C)C)cc1 (stereo not drawn) [Example 30] gave a Ki of 120 nM. CCCCc1nc(Cl)c(C=C(CC2CCCC2)C(=O)O)n1Cc1ccc(S(=O)(=O)N2CCCCC2)cc1 [Example 9] showed a Ki of 100 nM.
